Laboratory results from patent publication US20070128217A1 (priority 2003, published 2007).

Assays:
[1] = system: antibodies in sera from SARS patients (sera 1a, 1b, 2, 6, 37, 62, London, SARS-yellow, SARS-green); type: binding, human; parameters: Binding of serum 6 to linear peptides of protein X1 of SARS-CoV Urbani / Binding of serum 37 to linear peptides of protein X1 of SARS-CoV Urbani / Binding of serum 6 to looped/cyclic peptide (PEPSCAN-ELISA) / Binding of serum 37 to looped/cyclic peptide (PEPSCAN-ELISA) / Binding of serum 37 to looped/cyclic peptides of protein X1 of SARS-CoV Urbani / Binding of serum 6 to linear peptides of protein X2 / Binding of serum 37 to linear peptides of protein X2 / Binding of serum 37 to looped/cyclic peptides of protein X2 of SARS-CoV Urbani / Binding of serum 6 to linear peptides of protein M of SARS-CoV Urbani / Binding of serum 37 to linear peptides of protein M of SARS-CoV Urbani / Binding of serum 6 to looped/cyclic peptides of protein M of SARS-CoV Urbani / Binding of serum 37 to looped/cyclic peptides of protein M of SARS-CoV Urbani / Binding of serum 6 to linear peptides of protein X3 of SARS-CoV Urbani / Binding of serum 37 to linear peptides of protein X3 of SARS-CoV Urbani / Binding of serum 37 to looped/cyclic peptides of protein X3 of SARS-CoV Urbani / Binding of serum 6 to linear peptides of protein X4 of SARS-CoV Urbani / Binding of serum 37 to linear peptides of protein X4 of SARS-CoV Urbani / Binding of serum 37 to looped/cyclic peptides of protein X4 of SARS-CoV Urbani / Binding of serum 6 to linear peptides of protein X5 of SARS-CoV Urbani / Binding of serum 37 to linear peptides of protein X5 of SARS-CoV Urbani / Binding of serum 37 to looped/cyclic peptides of protein X5 of SARS-CoV Urbani / Binding of serum 6 to linear peptides of protein N of SARS-CoV Urbani / Binding of serum 37 to linear peptides of protein N of SARS-CoV Urbani / Binding of serum 6 to linear peptide (PEPSCAN-ELISA) / Binding of serum 1a to looped/cyclic peptides of protein N of SARS-CoV Urbani / Binding of serum 1b to looped/cyclic peptides of protein N of SARS-CoV Urbani / Binding of serum 2 to looped/cyclic peptides of protein N of SARS-CoV Urbani / Binding of serum 6 to looped/cyclic peptides of protein N of SARS-CoV Urbani / Binding of serum 37 to looped/cyclic peptides of protein N of SARS-CoV Urbani / Binding of serum 62 to looped/cyclic peptides of protein N of SARS-CoV Urbani / Binding of serum London to looped/cyclic peptides of protein N of SARS-CoV Urbani / Binding of serum SARS-green to looped/cyclic peptides of protein N of SARS-CoV Urbani: unit not given here
[2] = system: control sera (pooled serum of ten healthy LUMC hospital workers; commercial negative donor pooled serum from the Dutch bloodbank); type: binding, human; parameters: Binding of Control serum LUMC to linear peptides / Binding of Control serum Blood-bank to linear peptides / Binding of Control serum LUMC to looped peptides / Binding of Control Serum Blood-Bank to Looped peptides / Binding of Control serum LUMC to linear peptides of the protein M of SARS-CoV Urbani / Binding of Control serum Blood-bank to linear peptides of the protein M of SARS-CoV Urbani / Binding of Control serum LUMC to looped peptides of the protein M of SARS-CoV Urbani / Binding of Control Serum Blood-Bank to Looped peptides of the protein M of SARS-CoV Urbani: unit not given here
[3] = system: rabbit serum obtained by immunizing a rabbit with the SARS-CoV strain Frankfurt 1; type: binding; parameters: Binding of a rabbit serum to linear peptides / Binding of a rabbit serum to looped peptides / Rabbit serum linear peptides / Rabbit serum looped peptides / Binding of a rabbit serum to linear peptides of protein N of SARS-CoV Urbani (Rabbit serum linear peptides) / Binding of a rabbit serum to looped/cyclic peptides of protein N of SARS-CoV Urbani (Rabbit serum looped peptides): unit not given here

Sequence: FARTRSMWSFNPETN
- Binding of serum 1a to linear peptides of protein M of SARS-CoV Urbani [1]: 0.8
- Binding of serum 1a to looped/cyclic peptides of protein M of SARS-CoV Urbani [1]: 0.9
- Binding of serum 1b to linear peptides of protein M of SARS-CoV Urbani [1]: 0.7
- Binding of serum 1b to looped/cyclic peptides of protein M of SARS-CoV Urbani [1]: 0.6
- Binding of serum 2 to linear peptides of protein M of SARS-CoV Urbani [1]: 0.7
- Binding of serum 2 to looped/cyclic peptides of protein M of SARS-CoV Urbani [1]: 0.6
- Binding of serum 6 to linear peptides of protein M of SARS-CoV Urbani [1]: 0.4
- Binding of serum 6 to looped/cyclic peptides of protein M of SARS-CoV Urbani [1]: 0.7
- Binding of serum 37 to linear peptides of protein M of SARS-CoV Urbani [1]: 0.9
- Binding of serum 37 to looped/cyclic peptides of protein M of SARS-CoV Urbani [1]: 0.9
- Binding of serum 62 to linear peptides of protein M of SARS-CoV Urbani [1]: 0.8
- Binding of serum 62 to looped/cyclic peptides of protein M of SARS-CoV Urbani [1]: 0.8
- Binding of serum London to linear peptides of protein M of SARS-CoV Urbani [1]: 0.4
- Binding of serum London to looped/cyclic peptides of protein M of SARS-CoV Urbani [1]: 0.3
- Binding of serum SARS-green to linear peptides of protein M of SARS-CoV Urbani [1]: 0.3
- Binding of serum SARS-green to looped/cyclic peptides of protein M of SARS-CoV Urbani [1]: 0.0
- Binding of serum SARS-yellow to linear peptides of protein M of SARS-CoV Urbani [1]: 0.1
- Binding of serum SARS-yellow to looped/cyclic peptides of protein M of SARS-CoV Urbani [1]: 0.5
- Binding of Control Serum Blood-Bank to Looped peptides of the protein M of SARS-CoV Urbani [2]: 0.8
- Binding of Control serum Blood-bank to linear peptides of the protein M of SARS-CoV Urbani [2]: 0.9
- Binding of Control serum LUMC to linear peptides of the protein M of SARS-CoV Urbani [2]: 0.5
- Binding of Control serum LUMC to looped peptides of the protein M of SARS-CoV Urbani [2]: 0.6
- Rabbit serum linear peptides [3]: 0.4
- Rabbit serum looped peptides [3]: 0.3

Sequence: ILLNVPLRGTIVTRP
- Binding of serum 1a to linear peptides of protein M of SARS-CoV Urbani [1]: 0.6
- Binding of serum 1b to linear peptides of protein M of SARS-CoV Urbani [1]: 0.4
- Binding of serum 2 to linear peptides of protein M of SARS-CoV Urbani [1]: 0.4
- Binding of serum 6 to linear peptides of protein M of SARS-CoV Urbani [1]: 0.2
- Binding of serum 37 to linear peptides of protein M of SARS-CoV Urbani [1]: 0.4
- Binding of serum 62 to linear peptides of protein M of SARS-CoV Urbani [1]: 0.4
- Binding of serum London to linear peptides of protein M of SARS-CoV Urbani [1]: 0.3
- Binding of serum SARS-green to linear peptides of protein M of SARS-CoV Urbani [1]: 0.4
- Binding of serum SARS-yellow to linear peptides of protein M of SARS-CoV Urbani [1]: 0.2
- Recognition of the peptide by sera of SARS-CoV infected individuals, and form (linear, looped/cyclic) in which it is recognized [1]: recognized in looped/cyclic form
- Binding of Control Serum Blood-Bank to Looped peptides of the protein M of SARS-CoV Urbani [2]: 0.5
- Binding of Control serum Blood-bank to linear peptides of the protein M of SARS-CoV Urbani [2]: 0.6
- Binding of Control serum LUMC to linear peptides of the protein M of SARS-CoV Urbani [2]: 0.4
- Binding of Control serum LUMC to looped peptides of the protein M of SARS-CoV Urbani [2]: 0.5
- Rabbit serum linear peptides [3]: 0.0
- Rabbit serum looped peptides [3]: 0.2

Sequence: DTIVVTEGDGISTPK
- Binding of serum 1a to linear peptides of protein X1 of SARS-CoV Urbani [1]: 0.5
- Binding of serum 1a to looped/cyclic peptides of protein X1 of SARS-CoV Urbani [1]: 0.3
- Binding of serum 1b to linear peptides of protein X1 of SARS-CoV Urbani [1]: 0.4
- Binding of serum 1b to looped/cyclic peptides of protein X1 of SARS-CoV Urbani [1]: 0.2
- Binding of serum 2 to linear peptides of protein X1 of SARS-CoV Urbani [1]: 0.3
- Binding of serum 2 to looped/cyclic peptides of protein X1 of SARS-CoV Urbani [1]: 0.1
- Binding of serum 6 to linear peptides of protein X1 of SARS-CoV Urbani [1]: 0.4
- Binding of serum 6 to looped/cyclic peptides of protein X1 of SARS-CoV Urbani [1]: 0.2
- Binding of serum 37 to linear peptides of protein X1 of SARS-CoV Urbani [1]: 0.4
- Binding of serum 37 to looped/cyclic peptides of protein X1 of SARS-CoV Urbani [1]: 0.3
- Binding of serum 62 to linear peptides of protein X1 of SARS-CoV Urbani [1]: 0.3
- Binding of serum 62 to looped/cyclic peptides of protein X1 of SARS-CoV Urbani [1]: 0.3
- Binding of serum London to linear peptides of protein X1 of SARS-CoV Urbani [1]: 0.2
- Binding of serum London to looped/cyclic peptides of protein X1 of SARS-CoV Urbani [1]: 0.2
- Binding of serum SARS-green to linear peptides of protein X1 of SARS-CoV Urbani [1]: 0.2
- Binding of serum SARS-green to looped/cyclic peptides of protein X1 of SARS-CoV Urbani [1]: 0.1
- Binding of serum SARS-yellow to linear peptides of protein X1 of SARS-CoV Urbani [1]: 0.1
- Binding of serum SARS-yellow to looped/cyclic peptides of protein X1 of SARS-CoV Urbani [1]: 0.1
- Binding of Control Serum Blood-Bank to Looped peptides [2]: 0.4
- Binding of Control serum Blood-bank to linear peptides [2]: 0.4
- Binding of Control serum LUMC to linear peptides [2]: 0.3
- Binding of Control serum LUMC to looped peptides [2]: 0.3
- Binding of a rabbit serum to linear peptides [3]: 0.1
- Binding of a rabbit serum to looped peptides [3]: 0.5
